Data reported in US10888520B2, “Coated particle and method for producing coated particle” (KOBE GAKUIN EDUCATIONAL FOUNDATION, priority 2010, dated 2021).

Experiment: Elution test, JP XV paddle method
Format: physicochemical
Conditions: paddle 100 rpm, 900 ml pure water, 37° C.
Method: The coating particles obtained in Examples 1 to 3 and the acetaminophen bulk powder were subjected to an elution test.
The elution test was carried out under the conditions of the number of revolutions of paddle: 100 rpm, 900 ml pure water and 37° C., in accordance with JP XV paddle method. Elution concentration of acetaminophen was obtained from an absorbance (285 nm).

SMILES: CC(=O)Nc1ccc(O)cc1 [acetaminophen bulk powder, acetaminophen]
- elution concentration of acetaminophen (after 0.5 minute): 90%
- elution concentration of acetaminophen (after (about) 1 minute): 100%
